Experimental data reported in PubChem BioAssay (NCI).
“And” between values parts separate entries of the source, which are not always exact repeats. Equal values may be shown once.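 48-hour exposure; five concentrations; linearly interpolated endpoints. Abbreviation: GI50, concentration required for 50% inhibition of growth. TGI: concentration producing complete growth inhibition.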

How the values were obtained:
Assay in all cases: growth of human tumour cells (NCI), 48 h
CCRF-CEM leukemia = system: CCRF-CEM leukemia
HCT-15 colon = system: HCT-15 colon
HL-60(TB) leukemia = system: HL-60(TB) leukemia
LOX IMVI melanoma = system: LOX IMVI melanoma
M14 melanoma = system: M14 melanoma
MOLT-4 leukemia = system: MOLT-4 leukemia
NCI-H23 lung = system: NCI-H23 lung
NCI-H522 lung = system: NCI-H522 lung
OVCAR-5 ovarian = system: OVCAR-5 ovarian
SNB-19 CNS = system: SNB-19 CNS

| Compound | GI50 (CCRF-CEM leukemia) | TGI (CCRF-CEM leukemia) | GI50 (HCT-15 colon) | TGI (HCT-15 colon) | GI50 (HL-60(TB) leukemia) | TGI (HL-60(TB) leukemia) | GI50 (LOX IMVI melanoma) | TGI (LOX IMVI melanoma) | GI50 (M14 melanoma) | TGI (M14 melanoma) | GI50 (MOLT-4 leukemia) | TGI (MOLT-4 leukemia) | GI50 (NCI-H23 lung) | TGI (NCI-H23 lung) | GI50 (NCI-H522 lung) | TGI (NCI-H522 lung) | GI50 (OVCAR-5 ovarian) | TGI (OVCAR-5 ovarian) | GI50 (SNB-19 CNS) | TGI (SNB-19 CNS) |
| --- | --- | --- | --- | --- | --- | --- | --- | --- | --- | --- | --- | --- | --- | --- | --- | --- | --- | --- | --- | --- |
| COc1ccc(-c2c[nH]c(C(=O)O)c2-c2cc(OC)c(OC)c(OC)c2)cc1 | 4.08 µM | > 100 µM | 3.66 µM | > 100 µM | 3.06 µM | 9.59 µM | 6.69 µM | > 100 µM | 3.65 µM | > 100 µM | 4.95 µM | > 100 µM | 7.77 µM | > 100 µM | 2.75 µM | > 100 µM | 9.98 µM | > 100 µM | 7.24 µM | > 100 µM |
| FC(F)(F)c1ccc(Nc2nc(-c3c(C(F)(F)F)nc4ccccn34)cs2)cc1 | 0.0502 µM | > 30.8 µM | 0.0406 µM | 5.64 µM | 0.0406 µM | 2.25 µM | 0.0533 µM | 7.95 µM | 0.043 µM | 1.22 µM | 0.146 µM | > 28.7 µM | 0.0579 µM | 5.51 µM | 0.0284 µM | 0.754 µM | 0.476 µM | 16.5 µM | 0.0625 µM | 18.5 µM |
| Cc1c(C(N)=O)sc2c1C(=O)N(Cc1ccccc1)C1=NN=C(c3ccc(Cl)cc3)CN12 | 1.49 µM | 43.1 µM | 0.688 µM | 17.9 µM | 2.59 µM | 46.1 µM | 1.62 µM | 10.8 µM | 2.38 µM | 6.75 µM | 2.36 µM | 40.1 µM | 3.86 µM | 19.4 µM | 3.19 µM | 13.2 µM | 8.47 µM | 21.1 µM | 3.71 µM | 16.1 µM |
| CN(C)CCN1C(=O)c2ccccc2N(C)c2ccccc21 | > 100 µM | > 100 µM | > 100 µM | > 100 µM | > 100 µM | > 100 µM | > 100 µM | > 100 µM | > 100 µM | > 100 µM | > 100 µM | > 100 µM | > 100 µM | > 100 µM | > 100 µM | > 100 µM | > 100 µM | > 100 µM | > 100 µM | > 100 µM |
| CCC(C)(CC(C)(C)C(=O)NCC(=O)NC(Cc1ccccc1)C(=O)NC(Cc1ccccc1)C(=O)NCC(=O)NC1CC(OC2CC(O)(C(=O)CO)Cc3c(O)c4c(c(O)c32)C(=O)c2c(OC)cccc2C4=O)OC(C)C1O)C(=O)NCC(C)O (stereo not given) | 3.35 µg/mL and 98.9 µg/mL | > 150 µg/mL | 1.5 µg/mL | 1.5 µg/mL | 1.32 µg/mL and 62.8 µg/mL | – | 35.2 µg/mL | > 150 µg/mL | 120 µg/mL | > 150 µg/mL | 7.84 µg/mL | 96.6 µg/mL | 72.9 µg/mL | > 150 µg/mL | 45.5 µg/mL | > 150 µg/mL | > 150 µg/mL | > 150 µg/mL | 69.2 µg/mL | > 150 µg/mL |
| Clc1ccc(C2SCc3nc4ccccc4n32)c(Cl)c1 (stereo not given) | – | 40.8 µM | – | 37.5 µM | – | 28.3 µM | – | 29.4 µM | – | 28 µM | – | 34.6 µM | – | 25.1 µM | – | 29.9 µM | – | 30.3 µM | – | 33 µM |
| O=C(O)CNC(=O)c1ccc(-c2ccccc2)cc1 | – | > 100 µM | – | > 100 µM | – | > 100 µM | – | > 100 µM | – | > 100 µM | – | > 100 µM | – | > 100 µM | – | > 100 µM | – | > 100 µM | – | > 100 µM |
| CC(C)(C)OC(=O)N1CCN(CCn2cc(C(F)(F)F)c3c(Cl)ncnc32)CC1 | 2.85 µM | 9.19 µM | 1.94 µM | 3.94 µM | 2.43 µM | 6.46 µM | 1.73 µM | 3.24 µM | 1.77 µM | 3.49 µM | 2.62 µM | 6.6 µM | 2 µM | 4.32 µM | 15.1 µM | 29.9 µM | 17.1 µM | 38.7 µM | 2 µM | 3.72 µM |
| CCN(CC)CCCCNc1c2ccccc2[n+](C)c2c1[nH]c1ccccc12 | 0.59 µM | 3.39 µM | 7.15 µM | > 70 µM | 5.69 µM | > 31 µM | 0.346 µM | 2.03 µM | 1.41 µM | 4.64 µM | 0.269 µM | 23.8 µM | 0.221 µM | 1.07 µM | 0.0796 µM | 0.217 µM | 1 µM | 11.5 µM | 0.269 µM | 2.03 µM |
| CN(O)c1nc(N(C)O)nc(N2CCOCC2)n1 | 0.793 µM | > 100 µM | 0.637 µM | > 100 µM | 16 µM | > 100 µM | 1.67 µM | > 100 µM | 2.92 µM | 57 µM | 7.09 µM | > 100 µM | 12.4 µM | > 100 µM | 4.03 µM | > 100 µM | 41.2 µM | > 100 µM | 7.35 µM | > 100 µM |
| COc1cc(/C=C/C(=O)c2cccc(Nc3nc(Nc4ccccc4)nc(Nc4ccccc4)n3)c2)cc(OC)c1OC | 0.904 µM | 5.67 µM | 4.57 µM | > 100 µM | 1.33 µM | 4.1 µM | 6.32 µM | > 45.1 µM | 24.1 µM | > 100 µM | 1.07 µM | 4.38 µM | 6.07 µM | > 100 µM | 5.11 µM | > 100 µM | 38.4 µM | > 100 µM | 10.1 µM | > 100 µM |
| CC1CCC(NC(=O)N(CCCl)N=O)CC1 (stereo not given) | 8.11 µM | 30.3 µM and 55.8 µM | 20.6 µM | 43.4 µM and 82.8 µM | 8.98 µM | 24.1 µM and 72.2 µM | 14.7 µM | 39.8 µM and 52.6 µM | 14.3 µM | 30.5 µM and 66.5 µM | – | 40.2 µM and 66.6 µM | 61.8 µM | 129 µM | 14.1 µM | 31.6 µM and 90 µM | – | 105 µM | 55 µM | 110 µM |
| COc1ccc(-c2cc(=O)[nH]c3c(OC)c4ccccc4c(OC)c23)cc1 | 0.401 µM | > 100 µM | 0.419 µM | > 100 µM | 0.276 µM | – | 0.655 µM | > 100 µM | 0.388 µM | – | 0.914 µM | > 100 µM | 0.817 µM | > 100 µM | 0.284 µM | 3.26 µM | 3.58 µM | > 100 µM | 2.06 µM | > 100 µM |
| Cc1cccc(C)c1NC(=O)C(C#N)C1=C(Cl)C(=O)c2ccccc2C1=O (stereo not given) | – | 35.1 µM | – | 36 µM | – | 38.2 µM | – | 43.8 µM | – | 21.4 µM | – | 26.9 µM | – | 44 µM | – | 26.2 µM | – | 37.4 µM | – | 32.4 µM |
| Cc1cc(=O)n(-c2ccccc2C)c(C)n1 | – | > 100 µM | – | > 100 µM | – | > 100 µM | – | > 100 µM | – | > 100 µM | – | > 100 µM | – | > 100 µM | – | > 100 µM | – | > 100 µM | – | > 100 µM |
| COc1c(C)c2c(c(O)c1C/C=C(\C)CCC(=O)O)C(=O)OC2 | 0.0889 µM | > 100 µM | 0.15 µM | > 100 µM | 0.639 µM | > 100 µM | 0.132 µM | > 100 µM | 0.343 µM | > 100 µM | 0.208 µM | > 100 µM | 0.282 µM | > 100 µM | 0.262 µM | > 100 µM | 1.79 µM | > 100 µM | 0.286 µM | > 100 µM |
| Cc1cc2c(cc1C)N(C(=O)CCl)CC(=O)N2 | 2.01 µM | 5.49 µM | 1.74 µM | 3.42 µM | 2.69 µM | 5.74 µM | 0.858 µM | 4.85 µM | 2.2 µM | 8.35 µM | 2.41 µM | 7.01 µM | 3.41 µM | 16.4 µM | 0.568 µM | 1.97 µM | 2.53 µM | 5.33 µM | 12.6 µM | 26.2 µM |
